Common to all, as to format: functional
Test [1] relates to Mycobacterium tuberculosis. As to the kind of experiment: Antimycobacterial activity against multidrug-resistant Mycobacterium tuberculosis clinical isolates by broth dilution method.
The test system of test [2] is Mycobacterium tuberculosis. In words: Antimycobacterial activity against isoniazid-resistant Mycobacterium tuberculosis clinical isolates by broth dilution method. On the technique in general: Broth dilution looks for growth in wells or tubes with falling amounts of substance.
Test [3] relates to Mycobacterium tuberculosis. As to the kind of experiment: Antimycobacterial activity against rifampicin-resistant Mycobacterium tuberculosis clinical isolates by broth dilution method.

Data on 19 compounds can be found in ChEMBL document CHEMBL3132797, “Synthesis and biological evaluation of substituted N-alkylphenyl-3,5-dinitrobenzamide analogs as anti-TB agents” (Medchemcomm, 2014).

≈ marks a conversion by molar mass, not a printed value. Bounds are passed on as bounds.

For `C[C@@H](NC(=O)c1cc([N+](=O)[O-])cc([N+](=O)[O-])c1)c1ccccc1`, the MIC in test [1] is 12.7 µM (≈ 4 µg/mL); in test [2], 0.79 µM (≈ 0.249 µg/mL); in test [3] it was less than 0.047 µM.
For `O=C(NCCc1ccccc1)c1cc([N+](=O)[O-])cc([N+](=O)[O-])c1`, the MIC was more than 12.7 µM in test [1], 0.795 µM (≈ 0.251 µg/mL) in test [2] and less than 0.19 µM in test [3].
For the compound `O=C(Nc1ccc(F)cc1)c1cc([N+](=O)[O-])cc([N+](=O)[O-])c1`, the MIC in test [3] was 13 µM (≈ 3.98 µg/mL).
Same read-out and setting: in the case of `O=C(Nc1ccccc1F)c1cc([N+](=O)[O-])cc([N+](=O)[O-])c1` it was 13 µM (≈ 3.98 µg/mL); in that of `O=C(Nc1cc(Cl)cc(Cl)c1)c1cc([N+](=O)[O-])cc([N+](=O)[O-])c1`, 45.1 µM (≈ 16.1 µg/mL).
With `N#Cc1ccccc1NC(=O)c1cc([N+](=O)[O-])cc([N+](=O)[O-])c1`, the MIC in test [3] stood at 3.2 µM (≈ 0.999 µg/mL).
With `COc1ccc(CCNC(=O)c2cc([N+](=O)[O-])cc([N+](=O)[O-])c2)cc1`, the MIC in test [3] was less than 0.17 µM.
`CCCCC(CC)CNC(=O)c1cc([N+](=O)[O-])cc([N+](=O)[O-])c1` (stereo not drawn) gave an MIC in test [3] of less than 0.19 µM.
For `O=C(NC1CCCC1)c1cc([N+](=O)[O-])cc([N+](=O)[O-])c1`, the MIC in test [3] was 0.9 µM (≈ 0.251 µg/mL).
On the same count and under the same terms, the value for `Cc1c([N+](=O)[O-])cc(C(=O)NCc2ccccc2)cc1[N+](=O)[O-]` was 3.17 µM (≈ 0.999 µg/mL).
As to `Cc1ccc([C@@H](C)NC(=O)c2cc([N+](=O)[O-])c(C)c([N+](=O)[O-])c2)cc1`, the values for the MIC in test [1], in test [2] and in test [3] were 0.35 µM (≈ 0.12 µg/mL), 0.35 µM (≈ 0.12 µg/mL) and less than 0.04 µM, respectively.
Take `Cc1c([N+](=O)[O-])cc(C(=O)N[C@H](C)c2ccc(F)cc2)cc1[N+](=O)[O-]`: the MIC in test [1] was 5.76 µM (≈ 2 µg/mL); in test [2], 11.5 µM (≈ 4 µg/mL); in test [3], 11.5 µM (≈ 4 µg/mL).
On to `Cc1c([N+](=O)[O-])cc(C(=O)N[C@@H](C)c2ccc(F)cc2)cc1[N+](=O)[O-]`, for which the figures for the MIC in test [1], in test [2] and in test [3] were 0.72 µM (≈ 0.25 µg/mL), 0.72 µM (≈ 0.25 µg/mL) and less than 0.04 µM, respectively.
Turning to `Cc1ccc([C@@H](C)NC(=O)c2cc([N+](=O)[O-])cc([N+](=O)[O-])c2)cc1`, the figures for the MIC in test [1], in test [2] and in test [3] were 12.2 µM (≈ 4 µg/mL), less than 0.05 µM and less than 0.05 µM, respectively.
`CC(C)c1ccc(NC(=O)c2cc([N+](=O)[O-])cc([N+](=O)[O-])c2)cc1` came in with an MIC in test [3] of 48.6 µM (≈ 16 µg/mL).
As to `Cc1ccc(C(C)NC(=O)c2cc([N+](=O)[O-])c(C)c([N+](=O)[O-])c2)cc1` (racemic), the MIC in test [3] was less than 0.17 µM.
Consider `CC[C@@H](CO)NCCN[C@@H](CC)CO` [ETHAMBUTOL], for which the MIC in test [1] turned out to be 16 µM (≈ 3.27 µg/mL).
On to `NNC(=O)c1ccncc1` [ISONIAZID], for which the MIC stood at 16 µM (≈ 2.19 µg/mL) in test [1] and 64 µM (≈ 8.78 µg/mL) in test [2].
For `CO[C@H]1/C=C/O[C@@]2(C)Oc3c(C)c(O)c4c(O)c(c(/C=N/N5CCN(C)CC5)c(O)c4c3C2=O)NC(=O)/C(C)=C\C=C\[C@H](C)[C@H](O)[C@@H](C)[C@@H](O)[C@@H](C)[C@H](OC(C)=O)[C@@H]1C` [RIFAMPIN], the MIC in test [1] is 64 µM (≈ 52.7 µg/mL); in test [3], 256 µM (≈ 211 µg/mL).

What is called MIC is the lowest concentration that inhibits growth of the organism. Low readings indicate inhibition by little substance, high ones a need for much substance.
